Data as given in patent publication US20170348330A1, “ANTIVIRAL COMPOUND AND ANALOGUES THEREOF FOR TREATMENT OR PREVENTION OF FLAVIVIRUS DENGUE/ZIKA INFECTIONS” (Canopus BioPharma Incorporated, priority 2016, published 2017).
Where “and” joins values, the source holds several entries; their conditions need not be identical. Identical values can stand only once. Like-named read-outs stand apart in the source and are kept apart here.

Assays:
[1] = cited from earlier work
[2] = Eplerenone PK and concentrations reported in humans; assay type: in vivo, human; conditions: for Cmax: human, plasma, po
Text: Clinical data: Eplerenone PK and concentrations reported in humans:
Referring now to FIG. 5 and FIG. 6, Eplerenone Cmax concentrations achieved in normal subjects is illustrated, as well as subjects with varying degrees of renal impairment after single and multiple doses of Eplerenone given orally.
The charts illustrate the feasibility of achieving anti-viral Cmax concentrations using Eplerenone in human and show Eplerenone plasma concentration vs. time curves.
In multiple dose studies, it is shown that Eplerenone steady state concentrations may be reached within 4 days. […] This preferred embodiment may be adjusted according to the specific conditions of the human subject.

[3] = laboratory animals; cited from earlier work
[4] = tested on: Zika virus; assay: ZIKA anti-viral in-vitro testing in VERO cells (Naftol blue-black staining, absorbance at 450 nm); conditions: for Absorbance at 450 nm: Zika MOI 0.1, VERO cells, 72 hours, threshold 0.382, replicate wells
Procedure: ZIKA Anti-Viral In-Vitro Testing and Antiviral Assay Report:
Controls: Medium with DMSO at 1% start concentration; Zika virus for infection at 0.1 MOI; VERO cells on VP medium (serum-free).
Procedure: Antivirals were diluted as information provided to stock concentrations of 10 mM in 100% DMSO.
• 1—VERO cells in VP were inoculated in 200 μL/well at 5.0×10^4 cells/mL in 96-well plates. • 2—Incubated at 37° C. for 48 hours. • 3—With 80% confluence the test was performed as follows: culture medium was changed for 150 μL of fresh VP in columns 2 to 10. Antivirals diluted at 100 μM in VP medium were placed in the column 1 (300 μL). Serial dilutions from 1 to 10 were performed by passing 150 μL of medium (1:2). Plates were incubated at 37° C. for 2 hours. Zika virus diluted in VP medium to the final infection ration desired of MOI 0.1 in 100 μL of VP was added to wells. • 4—Plates were incubated for 72 hours and checked each 24 hours for cytotoxicity or cytopathic effect. • 5—Plates were washed and stained with Naftol blue-black. Absorbance was measured at 450 nm.
DMSO cytotoxicity Antiviral cytotoxicity Primary Threshold for virus inhibition. Absorbance above 0.382

[5] = cited from earlier work; for mean Cmax concentrations: healthy subjects
[6] = tested on: dengue; conditions: by inhibiting the dengue 2′-O-methyltransferase NS5 domain; cited from earlier work
[7] = tested on: dengue; conditions: mouse model; cited from earlier work
[8] = tested on: dengue; conditions: cited from earlier work

SMILES	Absorbance at 450 nm ([4]; 0.19 μM)	Absorbance at 450 nm ([4]; 0.78 μM)	Absorbance at 450 nm ([4]; 1.56 μM)	Absorbance at 450 nm ([4]; 3.12 μM)	Absorbance at 450 nm ([4]; 6.25 μM)	Absorbance at 450 nm ([4]; 12.5 μM)	Absorbance at 450 nm ([4]; 25 μM)	Absorbance at 450 nm ([4]; 50 μM)	other results
COC(=O)[C@@H]1CC2=CC(=O)CC[C@]2(C)[C@@]23O[C@@H]2C[C@@]2(C)[C@@H](CC[C@@]24CCC(=O)O4)[C@H]13 [Eplerenone, pregn-4-ene-7,21-dicarboxylic acid, 9,11-epoxy-17-hydroxy-3-oxo, γ-lactone, methyl ester (7α, 11α, 17α)]	0.449 and 0.441 and 0.468 and 0.469	0.433 and 0.434 and 0.432 and 0.428	0.369 and 0.466 and 0.453 and 0.443	0.4 and 0.423 and 0.453 and 0.441	0.376 and 0.448 and 0.411 and 0.397	0.334 and 0.333 and 0.373 and 0.341	0.29 and 0.288 and 0.291 and 0.271	0.217 and 0.238 and 0.209 and 0.182	Pregnancy category ([1]; animal reproduction studies failed to demonstrate a risk to the fetus): category B; Tolerability ([1]; human): generally well tolerated; Cmax relative to in-vitro concentration of column#9 ([…]) ([2]; Cmax […] after 100 mg oral vs in-vitro […]): 10 times; Cmax ([2]; 50 mg, healthy subjects, single dose of 50 mg orally, read-out: mean Cmax concentrations, equivalent): 2.8 µM; Cmax ([2]; 100 mg, healthy subjects, dose 100 mg orally, read-out: mean Cmax concentrations, equivalent): 4.1 µM; Cmax ([2]; 100 mg, therapeutic doses of oral Eplerenone (100 mg), read-out: Peak plasma concentrations (Cmax), equivalent): ≤ 4.1 µM; Dose with noticeable risk of foetal abnormalities [3]: over 1000 times the recommended daily dose; In-vitro concentrations showing anti-viral activity against Zika virus ([4]; columns 6-10 of the report, comparable to Butantan control): 0.19 to 3.12 µM; mean Cmax concentrations ([5]; dose 100 mg orally): 1720 ng/mL; mean Cmax concentrations ([5]; single dose of 50 mg orally): 1173 ng/mL; Accumulation: steady state Cmax compared with single dose administration ([5]; multiple dose studies): no significant accumulation; Time to reach steady state concentrations ([5]; multiple dose studies): ≤ 4 days; Peak plasma concentrations (Cmax) ([5]; therapeutic doses of oral Eplerenone (100 mg), human): up to 1720 ng/ml
COCCOC(=O)C1=C(C)NC(C)=C(C(=O)OC(C)C)C1c1cccc([N+](=O)[O-])c1 (centres unmarked) [Nimodipine]	0.206 and 0.321 and 0.378 and 0.354	0.142 and 0.293 and 0.459 and 0.396	0.202 and 0.387 and 0.46 and 0.397	0.235 and 0.468 and 0.451 and 0.415	0.263 and 0.363 and 0.451 and 0.395	0.276 and 0.282 and 0.347 and 0.305	0.21 and 0.224 and 0.271 and 0.217	0.091 and 0.113 and 0.117 and 0.092	–
NC(=O)c1ncn([C@@H]2O[C@H](CO)[C@@H](O)[C@H]2O)n1 [Ribavirin]	–	–	–	–	–	–	–	–	Activity against dengue in tissue culture [6]: works against dengue in tissue culture; Protection against dengue [7]: did not show protection; Adverse effects in dengue animal models ([8]; mouse model or rhesus monkey model (species not specified)): induced anemia and thrombocytosis; Protection against dengue ([8]; rhesus monkey model): did not show protection
CC(=O)S[C@@H]1CC2=CC(=O)CC[C@]2(C)[C@H]2CC[C@@]3(C)[C@@H](CC[C@@]34CCC(=O)O4)[C@H]12 [Spironolactone]	0.22 and 0.2 and 0.183 and 0.095	0.328 and 0.23 and 0.168 and 0.063	0.328 and 0.318 and 0.2 and 0.069	0.359 and 0.317 and 0.223 and 0.06	0.358 and 0.307 and 0.263 and 0.097	0.338 and 0.342 and 0.234 and 0.092	0.255 and 0.257 and 0.214 and 0.076	0.079 and 0.082 and 0.074 and 0.047	–
